From patent publication US10219990B2, “Solubilizing agents for UV filters in cosmetic formulations” (BASF SE, priority 2014, dated 2019)

Test: Solubility tests of UV filters in solubilizing agents
Type: physicochemical
Conditions: stirred seven days at 25° C., UV/Vis-spectrometry; for Solubility [%] of UV filter compound of formula (BPH-02) in solubilizing agent: UV filter (BPH-02); for Solubility [%] of UV filter compound of formula (HTP-02) in solubilizing agent: UV filter (HTP-02); for Solubility [%] of UV filter compound of formula (TAT-02) in solubilizing agent: UV filter (TAT-02)
Method: 2 ml of the solubilizing agent are filled into a 20 ml vial with cap. Afterwards 0.02 g (1%) of the respective substance (UV Filter) are weighed and added to the solvent. The vial is placed into a thermostat-controlled water bath, wherein the suspension/solution is stirred during seven days at 25° C.
If the substance added to the solubilizing agent is fully soluble, additional substance is added until precipitation can be observed.
After seven days, the sample is centrifuged for 30 minutes at 13000 rpm at 25° C. The supernatant is transferred into a small beaker. In case the sample is still turbid, it is filtered through a 0.2 μm non-steril Membrex 25 PET filter. Clear solutions must not be filtered. When a clear solution is obtained, the concentration of the substance is determined with UV/Vis-spectrometry. For this purpose, the sample may be diluted with a suitable solvent or, in case of lower concentrations, may be measured as it s.
The concentration of the UV-spectroscopic results is measured with the extinction coefficient, which is determined independently with a solvent of similar polarity like that one used for dilution of the saturated solutions.
The solubility can be calculated using the Lambert-Beer-Law equation.

C 23-Guerbet-monolactate
Solubility [%] of UV filter compound of formula (BPH-02) in solubilizing agent: 11.2% | Solubility [%] of UV filter compound of formula (HTP-02) in solubilizing agent: 2.9% | Solubility [%] of UV filter compound of formula (TAT-02) in solubilizing agent: 11.9%

CCCCCCCCCC(=O)N(C)C [Spectrasolv DMDA, reference compound]
Solubility [%] of UV filter compound of formula (BPH-02) in solubilizing agent: >40% | Solubility [%] of UV filter compound of formula (HTP-02) in solubilizing agent: 40% | Solubility [%] of UV filter compound of formula (TAT-02) in solubilizing agent: 23%

Iso-C18-monolactate
Solubility [%] of UV filter compound of formula (BPH-02) in solubilizing agent: 12.2% | Solubility [%] of UV filter compound of formula (HTP-02) in solubilizing agent: 3.3% | Solubility [%] of UV filter compound of formula (TAT-02) in solubilizing agent: 13.4%
